Experimental data taken from patent US8604059B2, “Thioxanthene derivatives for the treatment of infectious diseases” (BKG Pharma APS, priority 2009, dated 2013).
Converted amounts (≈) assume the structure as drawn. Like-named read-outs stand apart in the source and are kept apart here.

What was measured:
strain IIIB of HIV-1 = experiment: Inhibition of HIV-1 replication in MT4 cells, MTT assay; format: cell-based; settings: Human immunodeficiency virus 1, IIIB
Description: The enhancing effect of compound 3 on anti-viral agents was studied by checkerboard combination studies exposing HIV infected cells to 0-3 μM anti-viral agent in the absence or presence of compound 3 in concentrations from 0 to 6 μM. Each experiment was repeated in tripleduplicate. MIC values represent the mean values of two separate experiments.
The HIV-1 strain HTLV-IIIB were propagated in H9 cells at 37° C., 5% CO2 using RPMI 1640 with 10% heat-inactivated foetal calf serum (FCS) and antibiotics (growth medium). Culture supernatant was filtered ([…]), aliquotted, and stored at −80° C. until use. The HIV-1 strain was obtained from NIH AIDS Research and Reference Program.
(§1) Compounds were examined for possible antiviral activity against strain IIIB of HIV-1 using MT4 cells as target cells. MT4 cells were incubated with virus (0.005 MOI) and growth medium containing the test dilutions of compound(s) for six days in parallel with virus-infected and uninfected control cultures without compound added. Expression of HIV in the cultures was indirectly quantified using the MTT assay as previously described. Compounds mediating less than 30% reduction of HIV expression were considered without biological activity. Compounds were tested in parallel for cytotoxic effect in uninfected MT4 cultures containing the test dilutions of compound as described above. Cultures for test of both antiviral activity and cytotoxic effect were set up in tripleduplicates, […] per culture in micro titre plates. A 30% inhibition of cell growth relative to control cultures was considered significant. The 50% inhibitory concentration was determined by interpolation from the plots of percent inhibition versus concentration of compound.
EC50 is defined as the effective concentration that inhibits 50% of viral production, 50% of viral infectivity, or 50% of the virus-induced cytopathic effect.

[1] = Cytotoxic effect in uninfected MT4 cultures; format: cell-based; settings: human, uninfected MT4 cells; single agent; uninfected MT4
Description: as §1
(§2) CC50 is defined as the inhibitory concentration that reduces cellular growth or viability of uninfected cells by 50%.

MT4 cells = experiment: Cytotoxic effect in uninfected MT4 cultures; format: cell-based; settings: read-out: CC50 A + C3 (1 μM); AZT in presence of compound 3 at 1 μM
Description: as §1, §2

E. coli = experiment: MIC, microdilution broth, multiresistant clinical isolates (Table 1A); format: cell-based; settings: Escherichia coli; ten multiresistant clinical isolates; read-out: Median MIC E. coli
Description: (§3) Cell growth was tested using the Minimal Inhibitory Concentration (MIC) susceptibility tests by use of the microdilution broth method in accordance to the NCCLS Guidelines (NCCLS Guidelines, Methods for Dilution Antimicrobial Susceptibility Tests for Bacteria That Grow Aerobically; Approved Standard, Sixth Edition, Volume 23; Number 2). The minimum inhibitory concentration (MIC), is defined as the lowest concentration of drug which inhibits growth of the test organism, in the sense that no visible growth is detected (total inhibition of growth). In example 2, MIC of the compounds used on fungal microorgansims was determined from the IC90 measurements according to NCCLS Guidelines.
(§4) A log phase culture of bacteria was diluted with fresh pre-warmed Mueller-Hinton medium and adjusted to a defined OD at 600 nm in order to give a final concentration of 1×10^4-5 bacteria/ml medium. The bacterial culture was transferred to microtiter-plates and culture was added to each well. […] Trays were incubated at 37° C. by shaking in a robot analyzer, PowerWavex, software KC^4′ Kebo. Lab, Copenhagen, for 16 h and optical densities were measured at 600 nm during the incubation time in order to record growth curves. Wells containing bacterial culture without drug were used as controls to ensure correct inoculum size and bacterial growth during the incubation. Cultures were tested in order to detect contaminations. Each experiment was repeated in triplicate.
(§5) Ten strains in each test group.

E. faecalis = experiment: as above; format: cell-based; settings: Enterococcus faecalis; ten multiresistant clinical isolates; read-out: Median MIC E. faecalis
Description: as §3, §4, §5

E. faecium = experiment: as above; format: cell-based; settings: Enterococcus faecium; ten multiresistant clinical isolates; read-out: Median MIC E. faecium
Description: as §3, §4, §5

S. aureus = experiment: as above; format: cell-based; settings: Staphylococcus aureus; ten multiresistant clinical isolates; read-out: Median MIC S. aureus
Description: as §3, §4, §5

S. epidermidis = experiment: as above; format: cell-based; settings: Staphylococcus epidermidis; ten multiresistant clinical isolates; read-out: Median MIC S. epidermidis
Description: as §3, §4, §5

[2] = tested on: E. coli MDR clinical isolates; experiment: FIC index, synergy with antibiotics (Table 4a); format: cell-based; settings: 8 MDR E. coli, mean, compound at ¼ of MIC
Description: (§6) The effect of the compounds was tested according to the methods described in WO2005/105145. In brief, cell growth was tested using the MIC susceptibility tests by use of the microdilution broth method in accordance to the NCCLS Guidelines (NCCLS Guidelines, Methods for Dilution Antimicrobial Susceptibility Tests for Bacteria That Grow Aerobically; Approved Standard, Sixth Edition, Volume 23; Number 2).
(§7) The Fractional Inhibitory Concentration (FIC) index were calculated for each compound as described in WO2005/105145. Synergy was defined for Fractional Inhibitory Concentration (FIC) indices less than 0.5
E. coli: 8 in vivo-selected multidrug resistant clinical isolates of E. coli. Resistant to tetracycline, beta-lactams, fluoroquinolones, chloramphenicol and aminoglycoside

[3] = tested on: S. aureus MRSA clinical isolates; experiment: FIC index, synergy with antibiotics (Table 4a); format: cell-based, Staphylococcus aureus; settings: with Dicloxacillin; 8 MRSA; mean; compound at ¼ of MIC
Description: as §6, §7
Staphylococcus aureus: 8 (MRSA) in vivo-selected clinical isolates. Resistant to methicillin and beta-lactam antibiotics. Susceptible to teicoplanin chloramphenicol, fosfomycin, netilmicin and vancomycin.

[4] = tested on: E. faecalis MDR/VRE clinical isolates; experiment: FIC index, synergy with antibiotics (Table 4a); format: cell-based, Enterococcus faecalis; settings: 8 MDR/VRE E. faecalis, mean, compound at ¼ of MIC
Description: as §6, §7
Enterococcus faecalis: 8 multidrug resistant in vivo-selected clinical isolates. […] Expressing change in the cell wall precursor target as a major resistance mechanism (VanA gene expression).

[5] = tested on: Multiresistant clinical isolates E. coli; experiment: Maximal reversal of resistance and synergistic effect (Table 4c); format: cell-based; settings: E. coli multiresistant isolates
Description: The maximal obtained reversal of resistance and synergistic effect was tested as previously described.
Strains: Multiresistant clinical isolates E. coli, Ten strains in each group.

Gram negative sp. = experiment: MIC on multiresistant and susceptible clinical isolates (Table 1b); format: cell-based; settings: 8 multiresistant and 8 susceptible isolates
Description: as §3
(§8) A log phase culture of bacteria was diluted with fresh pre-warmed Mueller-Hinton medium and adjusted to a defined OD at 600 nm in order to give a final concentration of 1×10^4-5 bacteria/ml medium. The bacterial culture was transferred to microtiter-plates and culture was added to each well. Drug was added to the bacterial culture in the wells as two-fold dilution series of drug in order to give final concentrations ranging from 0.03 to 128 μg/ml. Trays were incubated at 37° C. by shaking in a robot analyzer, PowerWavex, software KC^4′ Kebo. Lab, Copenhagen, for 16 h and optical densities were measured at 600 nm during the incubation time in order to record growth curves. Wells containing bacterial culture without drug were used as controls to ensure correct inoculum size and bacterial growth during the incubation. Cultures were tested in order to detect contaminations. Each experiment was repeated in triplicate. MIC values represent the mean values of two separate triplicate experiments. Intra- and interassay variation was <5%.
(§9) Clinically relevant human bacterial isolates of Staphylococci, Streptococci, Micrococci and Gram negative species was cultured and assayed as described above for susceptibility towards the compounds listed in table 1b.

[6] = tested on: Staphylococci, Micrococci. Including MRSA; experiment: as above; format: cell-based; settings: Micrococci incl. MRSA, 8 multiresistant and 8 susceptible isolates
Description: as §3, §8, §9

Streptococci = experiment: as above; format: cell-based; settings: 8 multiresistant and 8 susceptible isolates
Description: as §3, §8, §9

Enterococci sp. = experiment: MIC on multiresistant and susceptible clinical isolates of Enterococci (Table 2); format: cell-based, Enterococcus faecalis and Enterococcus faecium; settings: 8 multiresistant (VanA, VanB, HLAR, BLR,CR) and 8 susceptible isolates
Description: as §3
as §8, with “Wells containing bacterial culture without drug were used as controls to ensure correct inoculum size and bacterial growth during the incubation. Cultures were tested in order to detect contaminations. Each experiment was repeated in triplicate. MIC values represent the mean values of two separate triplicate experiments. Intra- and interassay variation was <5%.” left out

Candida species = experiment: MIC on clinical isolates of Candida species, broth microdilution NCCLS M27-A (Table 3); format: cell-based; settings: Candida species incl. fluconazole resistant; MIC = 90% growth inhibition
Description: The antibacterial effect of demethylated/dealkylated phenothiazine or thioxanthene compounds were studied by growth inhibition studies exposing cells to 0-32 μg/ml of drug. Each experiment was repeated in triplicate. MIC values represent the mean values of two separate triplicate experiments.
4 clinical isolates of Candida species (including 3 fluconazole resistant isolates) were subcultured for 24 h on Sabouraud glucose agar before susceptibility testing. Broth microdilution tests were performed according to NCCLS document M27-A (Ref: National Commitee for Clinical Laboratory Standards. (1997). Reference Method for Broth Dilution Antifungal Susceptibility Testing of Yeasts: Approved Standard M27-A. NCCLS, Wayne, Pa.). Microtitre plates were read spectrophotometrically at 530 nm, after mixing the wells by pipetting to resuspend yeast sediments. In this experiment, the MIC was defined as the lowest drug dilution resulting in 90% growth inhibition.

Candida albicans = experiment: Synergy with fluconazole, broth microdilution NCCLS M27-A (Table 10); format: cell-based
Description: The isolates were subcultured for 24 h on Sabouraud glucose agar before susceptibility testing. Broth microdilution tests were performed according to NCCLS document M27-A (Ref: National Commitee for Clinical Laboratory Standards. (1997). Reference Method for Broth Dilution Antifungal Susceptibility Testing of Yeasts: Approved Standard M27-A. NCCLS, Wayne, Pa.) Microtitre plates were read spectrophotometrically at 530 nm, after mixing the wells by pipetting to resuspend yeast sediments. […] The Fractional Inhibitory Concentration (FIC) was calculated for the anti-infective agent alone and in combination with compound 3 and 4 (see table 4) as described above. Synergy was defined as a FIC index of <0.5.

SMILES: Cc1cn([C@H]2C[C@H](N=[N+]=[N-])[C@@H](CO)O2)c(=O)[nH]c1=O [AZT, 3′-Azido-3′-deoxythymidine]
- EC50 (strain IIIB of HIV-1; 144 h, single agent, MT4 cells, six days, read-out: EC50): 50 nM
- EC50 (strain IIIB of HIV-1; MT4, read-out: EC50 A + C3 (1 μM), AZT in presence of compound 3 at 1 μM): 10 nM
- CC50 at 6 days [1]: > 3000 nM
- CC50 (MT4 cells): > 3000 nM

SMILES: OCCN1CCN(CC/C=C2\c3ccccc3Sc3ccc(Cl)cc32)CC1 [Compound 2, trans-clopentixol]
- MIC (E. coli): 16 µg/mL (≈ 39.9 µM)
- MIC (E. faecalis): 1 µg/mL (≈ 2.49 µM)
- MIC (E. faecium): 1 µg/mL (≈ 2.49 µM)
- MIC (S. aureus): 8 µg/mL (≈ 20 µM)
- MIC (S. epidermidis): 8 µg/mL (≈ 20 µM)
- FIC index ([2]; with Ampicillin): 0.47
- FIC index ([2]; with Ciprofloxacin): 0.44
- FIC index ([2]; with Gentamycin): 0.44
- FIC index ([2]; with Tetracycline): 0.47
- FIC index [3]: 0.37
- FIC index ([4]; with Ciprofloxacin): 0.47
- FIC index ([4]; with Dicloxacillin): 0.47
- Maximal reversal of resistance: concentration of compound [5]: 2.0 µg/mL

SMILES: OCCN1CCC(CC/C=C2\c3ccccc3Sc3ccc(Cl)cc32)CC1 [Compound 4]
- MIC Mean (Gram negative sp.): 3 µg/mL (≈ 7.5 µM)
- MIC Mean [6]: 1 µg/mL (≈ 2.5 µM)
- MIC Mean (Streptococci): 1 µg/mL (≈ 2.5 µM)
- MIC Mean (range) (Enterococci sp.): 0.5 (0.125-1.0) μ/ml
- MIC Mean (range) (Candida species): 1.5 (0.125-2.0) μ/ml
- FIC index ([2]; with Ampicillin): 0.44
- FIC index ([2]; with Ciprofloxacin): 0.47
- FIC index ([2]; with Gentamycin): 0.47
- FIC index ([2]; with Tetracycline): 0.44
- FIC index [3]: 0.34
- FIC index ([4]; with Ciprofloxacin): 0.34
- FIC index ([4]; with Dicloxacillin): 0.34
- MIC (Candida albicans; Candida albicans, compound alone, read-out: MIC Compound): 1.5 µg/mL
- FIC index (Candida albicans; in combination with fluconazole): 0.39
